Source: patent US20250215039A1, “NUCLEOSIDES FOR TREATING CANCER” (PRIMEFOUR THERAPEUTICS, INC., priority 2022, published 2025)
Like-named read-outs stand apart in the source and are kept apart here.

Experiments:
cancer cell lines = assay: Cancer cell proliferation activity (CellTiterGlo, 72 h); type: cell-based; details: 72 h, 72 h, read-out: IC50
In short: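 Readout is CellTiterGlo luminescence after 72 h compound exposure (0.1% DMSO final), started one day post-seeding, at 37 °C.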

[1] = molecular target: human cytidine deaminase (CDA) (Homo sapiens, UniProt P32320); assay: Metabolism by human cytidine deaminase (CDA), substrate absorbance at 290 nm
human cytidine deaminase (CDA), sequence (P32320 whole entry): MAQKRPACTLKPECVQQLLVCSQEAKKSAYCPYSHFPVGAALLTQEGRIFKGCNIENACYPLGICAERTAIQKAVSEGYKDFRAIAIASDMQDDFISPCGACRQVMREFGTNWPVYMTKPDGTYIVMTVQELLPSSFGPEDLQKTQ

In the case of `N#C[C@]1(CO)O[C@@H](n2cc(F)c(N)nc2=O)C[C@@H]1O` [Cpd. No. 6, (2R,3S,5R)-5-(4-amino-5-fluoro-2-oxopyrimidin-1(2H)-yl)-3-hydroxy-2-(hydroxymethyl)tetrahydrofuran-2-carbonitrile], the IC50 (cancer cell lines; 5637 cell line (bladder)) is reported as > 50 µM, the IC50 (cancer cell lines; CLS439 cell line (bladder)) is reported as > 50 µM and the IC50 (cancer cell lines; HS729 cell line (muscle)) is reported as > 50 µM. The IC50 (cancer cell lines; JAR cell line (placenta)) was > 50 µM, the IC50 (cancer cell lines; U20S cell line, bone) was > 50 µM and the IC50 (cancer cell lines; Homo sapiens, 22Rv1, 72 h, 22RV1 cell line (prostate)) was > 50 µM. The IC50 (cancer cell lines; Homo sapiens, 786-0, 72 h, 786O cell line (kidney)) was > 50 µM, the IC50 (cancer cell lines; Homo sapiens, A204, 72 h, A204 cell line (muscle)) was 7.27 µM and the IC50 (cancer cell lines; Homo sapiens, A549, 72 h, A549 cell line, lung) was > 50 µM. The IC50 (cancer cell lines; Homo sapiens, A673, 72 h, A673 cell line (bone)) was > 50 µM, the IC50 (cancer cell lines; Homo sapiens, A2780, 72 h, A2780 cell line (ovary)) was > 50 µM and the IC50 (cancer cell lines; Homo sapiens, A-375, 72 h, A375 cell line (skin)) was > 50 µM. The IC50 (cancer cell lines; Homo sapiens, A-431, 72 h, A431 cell line (skin)) was > 50 µM, the IC50 (cancer cell lines; Homo sapiens, ACHN, ACHN cell line (kidney)) was > 50 µM and the IC50 (cancer cell lines; Homo sapiens, ASPC1, 72 h, ASPC1 cell line (pancreas)) was > 50 µM. For the same molecule, the IC50 (cancer cell lines; Homo sapiens, BT-20, 72 h, BT20 cell line (breast)) was > 50 µM, the IC50 (cancer cell lines; Homo sapiens, BXPC-3, 72 h, BXPC3 cell line (pancreas)) was > 50 µM and the IC50 (cancer cell lines; Homo sapiens, C-33-A, C33A cell line, endometrial) was > 50 µM. For the same molecule, the IC50 (cancer cell lines; Homo sapiens, CAKI-1, 72 h, CAKI1 cell line (kidney)) was > 50 µM, the IC50 (cancer cell lines; Homo sapiens, COLO 205, 72 h, COLO205 cell line (colon)) was > 50 µM and the IC50 (cancer cell lines; Homo sapiens, COLO-678, 72 h, COLO678 cell line (colon)) was > 50 µM. For the same molecule, the IC50 (cancer cell lines; Homo sapiens, Ca-Ski, CASKI cell line, endometrial) was > 50 µM, the IC50 (cancer cell lines; Homo sapiens, Caco-2, 72 h, CACO2 cell line (colon)) was > 50 µM and the IC50 (cancer cell lines; Homo sapiens, Calu-6, 72 h, CALU6 cell line (lung)) was > 50 µM. The IC50 (cancer cell lines; Homo sapiens, DLD-1, 72 h, DLD1 cell line (colon)) was > 50 µM, the IC50 (cancer cell lines; Homo sapiens, DU-145, 72 h, DU145 cell line (prostate)) was > 50 µM and the IC50 (cancer cell lines; Homo sapiens, EFO-21, 72 h, EFO21 cell line (ovary)) was > 50 µM. For the same molecule, the IC50 (cancer cell lines; Homo sapiens, EJ-28, 72 h, EJ28 cell line (bladder)) was > 50 µM, the IC50 (cancer cell lines; Homo sapiens, Granta-519, 72 h, GRANTA-519 cell line (hematological)) was 0.46 µM and the IC50 (cancer cell lines; Homo sapiens, HCT-15, 72 h, HCT15 cell line (colon)) was > 50 µM. For the same molecule, the IC50 (cancer cell lines; Homo sapiens, HCT-116, 72 h, HCT116 cell line (colon)) was > 50 µM, the IC50 (cancer cell lines; Homo sapiens, HEK293, 72 h, HEK293 cell line (kidney)) was > 50 µM and the IC50 (cancer cell lines; Homo sapiens, HL-60, 72 h, HL-60 cell line (hematological)) was > 50 µM. For the same molecule, the IC50 (cancer cell lines; Homo sapiens, HT-29, 72 h, HT29 cell line (colon)) was > 50 µM, the IC50 (cancer cell lines; Homo sapiens, HT-1080, 72 h, HT1080 cell line (connective tissue)) was > 50 µM and the IC50 (cancer cell lines; Homo sapiens, HeLa, HELA cell line, endometrial) was > 50 µM. The IC50 (cancer cell lines; Homo sapiens, HepG2, 72 h, HEPG2 cell line (liver)) was > 50 µM, the IC50 (cancer cell lines; Homo sapiens, Hs-578T, HS578T cell line, breast) was > 50 µM and the IC50 (cancer cell lines; Homo sapiens, IGROV-1, 72 h, IGROV1 cell line (ovary)) was > 50 µM. For the same molecule, the IC50 (cancer cell lines; Homo sapiens, IMR-90, 72 h, IMR90 cell line, lung) was > 50 µM, the IC50 (cancer cell lines; Homo sapiens, J82, 72 h, J82 cell line (bladder)) was > 50 µM and the IC50 (cancer cell lines; Homo sapiens, JEG-3, 72 h, JEG3 cell line (placenta)) was > 50 µM. The IC50 (cancer cell lines; Homo sapiens, JIMT-1, 72 h, JIMT1 cell line (breast)) was > 50 µM, the IC50 (cancer cell lines; Homo sapiens, K562, 72 h, K-562 cell line (hematological)) was > 50 µM and the IC50 (cancer cell lines; Homo sapiens, Kasumi 1, 72 h, KASUMI-1 cell line (hematological)) was > 50 µM. For the same molecule, the IC50 (cancer cell lines; Homo sapiens, L-363, 72 h, L-363 cell line (hematological)) was > 50 µM, the IC50 (cancer cell lines; Homo sapiens, LoVo, LOVO cell line (colon)) was > 50 µM and the IC50 (cancer cell lines; Homo sapiens, MCF7, 72 h, MCF7 cell line (breast)) was > 50 µM. For the same molecule, the IC50 (cancer cell lines; Homo sapiens, MDA-MB-231, 72 h, MDAMB231 cell line (breast)) was > 50 µM, the IC50 (cancer cell lines; Homo sapiens, MDA-MB-435, 72 h, MDAMB435 cell line (skin)) was > 50 µM and the IC50 (cancer cell lines; Homo sapiens, MDA-MB-436, 72 h, MDAMB436 cell line (breast)) was > 50 µM. The IC50 (cancer cell lines; Homo sapiens, MDA-MB-468, 72 h, MDAMB468 cell line (breast)) was > 50 µM, the IC50 (cancer cell lines; Homo sapiens, MG-63, 72 h, MG63 cell line (bone)) was > 50 µM and the IC50 (cancer cell lines; Homo sapiens, MHH-ES-1, 72 h, MHHES1 cell line (bone)) was > 50 µM. The IC50 (cancer cell lines; Homo sapiens, MIA PaCa-2, 72 h, MIAPACA2 cell line (pancreas)) was > 50 µM, the IC50 (cancer cell lines; Homo sapiens, MINO, MINO cell line (hematological)) was 0.68 µM and the IC50 (cancer cell lines; Homo sapiens, MV4-11, 72 h, MV4-11 cell line (hematological)) was > 50 µM. The IC50 (cancer cell lines; Homo sapiens, NCI-H23, 72 h, NCI-H23 cell line (lung)) was > 50 µM, the IC50 (cancer cell lines; Homo sapiens, NCI-H82, 72 h, NCIH82 cell line (lung)) was > 50 µM and the IC50 (cancer cell lines; Homo sapiens, NCI-H292, 72 h, NCIH292 cell line (lung)) was > 50 µM. The IC50 (cancer cell lines; Homo sapiens, NCI-H460, 72 h, NCIH460 cell line (lung)) was > 50 µM, the IC50 (cancer cell lines; Homo sapiens, OVCAR-3, 72 h, OVCAR3 cell line (ovary)) was > 50 µM and the IC50 (cancer cell lines; Homo sapiens, OVCAR-4, 72 h, OVCAR4 cell line (ovary)) was > 50 µM. The IC50 (cancer cell lines; Homo sapiens, PANC-1, 72 h, PANC1 cell line (pancreas)) was > 50 µM, the IC50 (cancer cell lines; Homo sapiens, PC-3, 72 h, PC3 cell line (prostate)) was > 50 µM and the IC50 (cancer cell lines; Homo sapiens, PLC-PRF-5, 72 h, PLCPRF5 cell line (liver)) was > 50 µM. For the same molecule, the IC50 (cancer cell lines; Homo sapiens, Panc1005, 72 h, PANC1005 cell line (pancreas)) was > 50 µM, the IC50 (cancer cell lines; Homo sapiens, RD, RD cell line (muscle)) was > 50 µM and the IC50 (cancer cell lines; Homo sapiens, Ramos, RAMOS cell line (hematological)) was 8.68 µM. For the same molecule, the IC50 (cancer cell lines; Homo sapiens, SAOS-2, 72 h, SAOS2 cell line (bone)) was 2.05 µM, the IC50 (cancer cell lines; Homo sapiens, SF-268, 72 h, SF268 cell line (brain)) was > 50 µM and the IC50 (cancer cell lines; Homo sapiens, SF-295, 72 h, SF295 cell line (brain)) was > 50 µM. The IC50 (cancer cell lines; Homo sapiens, SK-BR-3, 72 h, SKBR3 cell line (breast)) was > 50 µM, the IC50 (cancer cell lines; Homo sapiens, SK-HEP1, 72 h, SKHEP1 cell line (liver)) was > 50 µM and the IC50 (cancer cell lines; Homo sapiens, SK-LMS-1, 72 h, SKLMS1 cell line (uterus)) was > 50 µM. The IC50 (cancer cell lines; Homo sapiens, SK-MEL-5, 72 h, SKMEL5 cell line, skin) was > 50 µM, the IC50 (cancer cell lines; Homo sapiens, SK-MEL-28, 72 h, SKMEL28 cell line (skin)) was > 50 µM and the IC50 (cancer cell lines; Homo sapiens, SK-N-AS, SKNAS cell line (brain)) was > 50 µM. For the same molecule, the IC50 (cancer cell lines; Homo sapiens, SK-N-SH, SKNSH cell line (brain)) was > 50 µM, the IC50 (cancer cell lines; Homo sapiens, SK-OV-3, 72 h, SKOV3 cell line (ovary)) was > 50 µM and the IC50 (cancer cell lines; Homo sapiens, SNB-75, 72 h, SNB75 cell line (brain)) was > 50 µM. The IC50 (cancer cell lines; Homo sapiens, SU-DHL10, 72 h, SU-DHL-10 cell line (hematological)) was 2.55 µM, the IC50 (cancer cell lines; Homo sapiens, SU-DHL-6, 72 h, SU-DHL-6 cell line (hematological)) was > 50 µM and the IC50 (cancer cell lines; Homo sapiens, SW-620, 72 h, SW620 cell line (colon)) was > 50 µM. The IC50 (cancer cell lines; Homo sapiens, T-24, 72 h, T24 cell line (bladder)) was > 50 µM, the IC50 (cancer cell lines; Homo sapiens, TE-671, 72 h, TE671 cell line (muscle)) was > 50 µM and the IC50 (cancer cell lines; Homo sapiens, THP-1, 72 h, THP-1 cell line (hematological)) was > 50 µM. The IC50 (cancer cell lines; Homo sapiens, U-87 MG, U87MG cell line (brain)) was > 50 µM, the IC50 (cancer cell lines; Homo sapiens, UMUC3, 72 h, UMUC3 cell line (bladder)) was > 50 µM and the IC50 (cancer cell lines; Homo sapiens, UO-31, 72 h, UO31 cell line (kidney)) was > 50 µM. The IC50 (cancer cell lines; Homo sapiens, WSU-NHL, WSU-NHL cell line (hematological)) was 2.32 µM, the IC50 (cancer cell lines; MT-3, 72 h, MT3 cell line (breast)) was > 50 µM and the IC50 (cancer cell lines; NCI-H358M, NCIH358M cell line (lung)) was > 50 µM. The IC50 (cancer cell lines; PBMC, PBMC (hematological)) was > 50 µM, the IC50 (cancer cell lines; RD-ES, RDES cell line (bone)) was > 50 µM and the “metabolism (deamination) by human CDA (line graph)” value ([1]; 12 nM CDA, 50 and 200 uM substrate, 37° C., pH 7.5, figure legends FIG. 4-9) was “not metabolized”. For the same molecule, the “substrate conversion by CDA (Inactive)” value ([1]; rate of substrate conversion at 200 μM, could not be fitted) was “Inactive”.
